Among the data in ChEMBL document CHEMBL1130335, “Comparative molecular field analysis of a series of paclitaxel analogues” (J Med Chem, 1997) are Activity values, retold here.

The nature of this test: Measured activity expressed as ID50 (analogue)/ID50 (paclitaxel), where ID50 is the concentration of compound leading to 50% inhibition of the rate microtubule disassembly. In kind it is functional.
Consider `CC(=O)O[C@@H]1C2=C(C)[C@@H](OC(=O)[C@H](O)[C@@H](NC(=O)OC(C)(C)C)c3ccccc3)C[C@@](O)([C@@H](OC(=O)c3ccccc3)[C@H]3[C@@](C)([C@@H](O)CC4OC[C@]43OC(C)=O)[C@H]1O)C2(C)C` (some centres not stated), for which the Activity turned out to be 0.87.
Regarding `CC(=O)O[C@H]1C(=O)[C@]2(C)[C@@H](O)CC3OC[C@@]3(OC(C)=O)[C@H]2[C@H](OC(=O)c2ccccc2)[C@]2(O)C[C@H](OC(=O)[C@H](O)[C@H](NC(=O)c3ccco3)c3ccccc3)C(C)=C1C2(C)C` (some centres not stated), the Activity is 0.8.
Under `CO[C@H]1[C@H](OC(C)=O)C2=C(C)[C@@H](OC(=O)[C@H](O)[C@@H](NC(=O)c3ccccc3)c3ccccc3)C[C@@](O)([C@@H](OC(=O)c3ccccc3)[C@H]3[C@@]1(C)[C@@H](O)CC1OC[C@]13OC(C)=O)C2(C)C` (some centres not stated) stands 0.35; under `COC(=O)[C@H]1CC2OC[C@@]2(OC(C)=O)[C@H]2[C@H](OC(=O)c3ccccc3)[C@]3(O)C[C@H](OC(=O)[C@H](O)[C@@H](NC(=O)c4ccccc4)c4ccccc4)C(C)=C([C@@H](OC(C)=O)[C@H](C(=O)OC)[C@]12C)C3(C)C` (some centres not stated), 0.91.
Under `COc1ccc(C(=O)N[C@H](c2ccccc2)[C@@H](O)C(=O)O[C@H]2C[C@@]3(O)[C@@H](OC(=O)c4ccccc4)[C@H]4[C@](C)(C(=O)[C@H](OC(C)=O)C(=C2C)C3(C)C)[C@@H](O)CC2OC[C@]24OC(C)=O)cc1` (some centres not stated) stands 0.5.
Under `CC(=O)O[C@@H]1C2=C(C)[C@@H](OC(=O)[C@H](O)[C@H](C)NC(=O)OC(C)(C)C)C[C@@](O)([C@@H](OC(=O)c3ccccc3)[C@H]3[C@@](C)([C@@H](O)CC4OC[C@]43OC(C)=O)[C@H]1O)C2(C)C` (some centres not stated) stands 1.08; under `CC(=O)O[C@H]1C(=O)[C@]2(C)[C@@H](O)CC3OC[C@@]3(OC(C)=O)[C@H]2[C@H](OC(=O)c2ccccc2)[C@]2(O)C[C@H](OC(=O)[C@H](O)[C@H](NC(=O)CC(C)(C)C)c3ccccc3)C(C)=C1C2(C)C` (some centres not stated), 0.7; under `CC(=O)O[C@H]1C(=O)[C@]2(C)[C@@H](O)CC3OC[C@@]3(OC(C)=O)[C@H]2[C@H](OC(=O)c2ccccc2)[C@]2(O)C[C@H](OC(=O)[C@@H](NC(=O)c3ccccc3)[C@@H](O)c3ccccc3)C(C)=C1C2(C)C` (some centres not stated), 110.
In the case of `CC(=O)O[C@H]1C(=O)[C@]2(C)[C@@H](O)CC3OC[C@@]3(OC(C)=O)[C@H]2[C@H](OC(=O)c2ccccc2)[C@]2(O)C[C@H](OC(=O)[C@H](NC(=O)c3ccccc3)[C@H](O)c3ccccc3)C(C)=C1C2(C)C` (some centres not stated), the Activity is 10.
Then `CC(=O)O[C@@]12COC1C[C@H](O)[C@@]1(C)C(=O)[C@H](O)C3=C(C)[C@@H](OC(=O)[C@H](O)[C@@H](/C=C/c4ccccc4)NC(=O)OC(C)(C)C)C[C@@](O)([C@@H](OC(=O)c4ccccc4)[C@@H]12)C3(C)C` (some centres not stated), with 1.45; and `CC(=O)O[C@@H]1C2=C(C)[C@@H](OC(=O)[C@H](O)[C@H](COc3ccccc3)NC(=O)c3ccccc3)C[C@@](O)([C@@H](OC(=O)c3ccccc3)[C@H]3[C@@](C)([C@@H](O)CC4OC[C@]43OC(C)=O)[C@H]1O)C2(C)C` (some centres not stated), with 5.81.
As to `CC(=O)O[C@@]12COC1C[C@H](O)[C@@]1(C)C(=O)[C@H](O)C3=C(C)[C@@H](OC(=O)[C@H](O)[C@H](NC(=O)c4cccs4)C(C)(C)C)C[C@@](O)([C@@H](OC(=O)c4ccccc4)[C@@H]12)C3(C)C` (some centres not stated), the Activity worked out at 0.42.
Under `CC(=O)O[C@@H]1C2=C(C)[C@@H](OC(=O)[C@H](O)[C@@H](NC(=O)OC(C)(C)C)C(O)CO)C[C@@](O)([C@@H](OC(=O)c3ccccc3)[C@H]3[C@@](C)([C@@H](O)CC4OC[C@]43OC(C)=O)[C@H]1O)C2(C)C` (some centres not stated) stands 2.71; under `CC(=O)O[C@@H]1C2=C(C)[C@@H](OC(=O)[C@H](O)[C@@H](NC(=O)OC(C)(C)C)[C@H]3COC(C)(C)O3)C[C@@](O)([C@@H](OC(=O)c3ccccc3)[C@H]3[C@@](C)([C@@H](O)CC4OC[C@]43OC(C)=O)[C@H]1O)C2(C)C` (some centres not stated), 7.91.
The molecule `CC(=O)O[C@@H]1C2=C(C)[C@@H](OC(=O)[C@H](O)[C@@H](NC(=O)c3ccccc3)c3ccccc3)C[C@@](O)([C@@H](OC(=O)c3ccccc3)[C@H]3[C@@](C)([C@@H](O)CC4OC[C@]43OC(C)=O)[C@H]1O)C2(C)C` (some centres not stated) returned an Activity of 0.86.
Then `CC(=O)O[C@@]12COC1C[C@H](O)[C@@]1(C)C(=O)[C@H](O)C3=C(C)[C@@H](OC(=O)[C@@H](NC(=O)c4ccccc4)[C@@H](O)c4ccccc4)C[C@@](O)([C@@H](OC(=O)c4ccccc4)[C@@H]12)C3(C)C` (some centres not stated), with 170.
As to `CC(=O)O[C@H]1C(=O)[C@]2(C)[C@@H](O)CC3OC[C@@]3(OC(C)=O)[C@H]2[C@H](OC(=O)C2CCCCC2)[C@]2(O)C[C@H](OC(=O)[C@H](O)[C@@H](NC(=O)C3CCCCC3)C3CCCCC3)C(C)=C1C2(C)C` (some centres not stated), the Activity is 0.47.
Molecule `CC[C@H](NC(=O)OC(C)(C)C)[C@@H](O)C(=O)O[C@H]1C[C@@]2(O)[C@@H](OC(=O)c3ccccc3)[C@H]3[C@@](C)([C@@H](O)CC4OC[C@]43OC(C)=O)[C@@H](O)[C@H](OC(C)=O)C(=C1C)C2(C)C` (some centres not stated) had an Activity of 0.61.
Then `CC(=O)O[C@H]1C(=O)[C@]2(C)[C@@H](O)CC3OC[C@@]3(OC(C)=O)[C@H]2[C@H](OC(=O)c2ccccc2)[C@]2(O)C[C@H](OC(=O)[C@H](O)[C@H](NC(=O)C(C)=O)c3ccccc3)C(C)=C1C2(C)C` (some centres not stated), with 3.5; and `CC(=O)O[C@H]1C(=O)[C@]2(C)[C@@H](O)CC3OC[C@@]3(OC(C)=O)[C@H]2[C@H](OC(=O)c2ccccc2)[C@]2(O)C[C@H](OC(=O)[C@H](NC(=O)OC(C)(C)C)[C@H](O)c3ccccc3)C(C)=C1C2(C)C` (some centres not stated), with 10; and `CC(=O)O[C@@H]1C2=C(C)[C@@H](OC(=O)[C@H](O)[C@@H](NC(=O)NC(C)(C)C)c3ccccc3)C[C@@](O)([C@@H](OC(=O)c3ccccc3)[C@H]3[C@@](C)([C@@H](O)CC4OC[C@]43OC(C)=O)[C@H]1O)C2(C)C` (some centres not stated), with 1.06.
For the molecule `CC(=O)O[C@@]12COC1C[C@H](O)[C@@]1(C)C(=O)[C@H](O)C3=C(C)[C@@H](OC(=O)[C@H](NC(=O)OC(C)(C)C)[C@H](O)c4ccccc4)C[C@@](O)([C@@H](OC(=O)c4ccccc4)[C@@H]12)C3(C)C` (some centres not stated), the Activity is 10.
As for `CCCCOC(=O)N[C@H](c1ccccc1)[C@@H](O)C(=O)O[C@H]1C[C@@]2(O)[C@@H](OC(=O)c3ccccc3)[C@H]3[C@](C)(C(=O)[C@H](OC(C)=O)C(=C1C)C2(C)C)[C@@H](O)CC1OC[C@]13OC(C)=O` (some centres not stated), the Activity was 0.8.
Under `CC(=O)O[C@H]1C(=O)[C@]2(C)[C@@H](O)CC3OC[C@@]3(OC(C)=O)[C@H]2[C@H](OC(=O)C2CCCCC2)[C@]2(O)C[C@H](OC(=O)[C@H](O)[C@@H](NC(=O)c3ccccc3)c3ccccc3)C(C)=C1C2(C)C` (some centres not stated) stands 1.7.
The molecule `CC(=O)O[C@@]12COC1C[C@H](O)[C@@]1(C)C(=O)[C@H](O)C3=C(C)[C@@H](OC(=O)/C=C/c4ccccc4)C[C@@](O)([C@@H](OC(=O)c4ccccc4)[C@@H]12)C3(C)C` (some centres not stated) registered an Activity of 23.
Under `CC(=O)O[C@H]1C(=O)[C@]2(C)[C@@H](O)CC3OC[C@@]3(OC(C)=O)[C@H]2[C@H](OC(=O)c2ccccc2)[C@]2(O)C[C@H](OC(=O)[C@H](O)[C@H](N)c3ccccc3)C(C)=C1C2(C)C` (some centres not stated) stands 44; under `CC(=O)O[C@@]12COC1C[C@H](O)[C@@]1(C)C(=O)[C@H](O)C3=C(C)[C@@H](OC(=O)[C@H](O)[C@@H](CC(C)C)NC(=O)OC(C)(C)C)C[C@@](O)([C@@H](OC(=O)c4ccccc4)[C@@H]12)C3(C)C` (some centres not stated), 0.78.
`CO[C@H]1CC2OC[C@@]2(OC(C)=O)[C@H]2[C@H](OC(=O)c3ccccc3)[C@]3(O)C[C@H](OC(=O)[C@H](O)[C@@H](NC(=O)OC(C)(C)C)c4ccccc4)C(C)=C([C@@H](OC(C)=O)[C@H](O)[C@]12C)C3(C)C` (some centres not stated) had an Activity of 1.74.
Molecule `CC(=O)O[C@H]1C(=O)[C@]2(C)[C@@H](O)CC3OC[C@@]3(OC(C)=O)[C@H]2[C@H](OC(=O)c2ccccc2)[C@]2(O)C[C@H](OC(=O)[C@H](O)[C@H](NC(=O)OC(C)(C)C)c3ccccc3)C(C)=C1C2(C)C` (some centres not stated) yielded an Activity of 0.5.
Molecule `CC(=O)O[C@H]1C(=O)[C@]2(C)[C@@H](O)CC3OC[C@@]3(OC(C)=O)[C@H]2[C@H](OC(=O)c2ccccc2)[C@]2(O)C[C@H](OC(=O)[C@H](O)[C@H](NC(=O)C(C)(C)C)c3ccccc3)C(C)=C1C2(C)C` (some centres not stated) yielded an Activity of 2.6.
For `CC(=O)O[C@H]1C(=O)[C@]2(C)[C@@H](O)CC3OC[C@@]3(OC(C)=O)[C@H]2[C@H](OC(=O)c2ccccc2)[C@]2(O)C[C@H](OC(=O)[C@H](O)[C@H](NC(=O)c3ccccc3)c3cccc4ccccc34)C(C)=C1C2(C)C` (some centres not stated), the Activity worked out at 7.1.
For `CC(=O)N[C@@H](c1ccccc1)[C@@H](O)C(=O)O[C@H]1C[C@@]2(O)[C@@H](OC(=O)c3ccccc3)[C@H]3[C@@](C)([C@@H](O)CC4OC[C@]43OC(C)=O)[C@@H](O)[C@H](OC(C)=O)C(=C1C)C2(C)C` (some centres not stated), the Activity is 3.17.
Then `CC(=O)O[C@H]1C(=O)[C@]2(C)[C@@H](O)CC3OC[C@@]3(OC(C)=O)[C@H]2[C@H](OC(=O)c2ccccc2)[C@]2(O)C[C@H](OC(=O)C(O)C(C)O)C(C)=C1C2(C)C` (some centres not stated), with 60.
Under `CC(=O)O[C@H]1C(=O)[C@]2(C)[C@@H](O)CC3OC[C@@]3(OC(C)=O)[C@H]2[C@H](OC(=O)c2ccccc2)[C@]2(O)C[C@H](OC(=O)[C@H](O)[C@H](NC(=O)CC(C)C)c3ccccc3)C(C)=C1C2(C)C` (some centres not stated) stands 1.9; under `CC(=O)O[C@@]12COC1C[C@H](O)[C@@]1(C)C(=O)[C@H](O)C3=C(C)[C@@H](OC(=O)CCc4ccccc4)C[C@@](O)([C@@H](OC(=O)c4ccccc4)[C@@H]12)C3(C)C` (some centres not stated), 17; under `CC(=O)O[C@@]12COC1C[C@H](O)[C@@]1(C)C(=O)C[C@@]34O[C@]3(C)[C@@H](OC(=O)[C@H](O)[C@@H](NC(=O)c3ccccc3)c3ccccc3)C[C@@](O)([C@@H](OC(=O)c3ccccc3)[C@@H]12)C4(C)C` (some centres not stated), 0.66.
`C/C=C(/C)C(=O)N[C@H](c1ccccc1)[C@@H](O)C(=O)O[C@H]1C[C@@]2(O)[C@@H](OC(=O)c3ccccc3)[C@H]3[C@](C)(C(=O)[C@H](OC(C)=O)C(=C1C)C2(C)C)[C@@H](O)CC1OC[C@]13OC(C)=O` (some centres not stated) yielded an Activity of 1.5.
